Experimental data published in PMC8222254, “Self-assembly of an anion receptor with metal-dependent kinase inhibition and potent in vitro anti-cancer properties” (Nature Communications, 2021).
Where “and” joins values, the source holds several entries; their conditions need not be identical. Equal entries are not always repeated.

Tests used:
Experiment in all cases: Kinase inhibition screen, cell-free 33P ATP assay at 10 μM
Type in all cases: biochemical
[1] = target: T1, 140 purified human kinases (Homo sapiens, UniProt Q7L7X3)
T1 sequence (Q7L7X3 1-1001): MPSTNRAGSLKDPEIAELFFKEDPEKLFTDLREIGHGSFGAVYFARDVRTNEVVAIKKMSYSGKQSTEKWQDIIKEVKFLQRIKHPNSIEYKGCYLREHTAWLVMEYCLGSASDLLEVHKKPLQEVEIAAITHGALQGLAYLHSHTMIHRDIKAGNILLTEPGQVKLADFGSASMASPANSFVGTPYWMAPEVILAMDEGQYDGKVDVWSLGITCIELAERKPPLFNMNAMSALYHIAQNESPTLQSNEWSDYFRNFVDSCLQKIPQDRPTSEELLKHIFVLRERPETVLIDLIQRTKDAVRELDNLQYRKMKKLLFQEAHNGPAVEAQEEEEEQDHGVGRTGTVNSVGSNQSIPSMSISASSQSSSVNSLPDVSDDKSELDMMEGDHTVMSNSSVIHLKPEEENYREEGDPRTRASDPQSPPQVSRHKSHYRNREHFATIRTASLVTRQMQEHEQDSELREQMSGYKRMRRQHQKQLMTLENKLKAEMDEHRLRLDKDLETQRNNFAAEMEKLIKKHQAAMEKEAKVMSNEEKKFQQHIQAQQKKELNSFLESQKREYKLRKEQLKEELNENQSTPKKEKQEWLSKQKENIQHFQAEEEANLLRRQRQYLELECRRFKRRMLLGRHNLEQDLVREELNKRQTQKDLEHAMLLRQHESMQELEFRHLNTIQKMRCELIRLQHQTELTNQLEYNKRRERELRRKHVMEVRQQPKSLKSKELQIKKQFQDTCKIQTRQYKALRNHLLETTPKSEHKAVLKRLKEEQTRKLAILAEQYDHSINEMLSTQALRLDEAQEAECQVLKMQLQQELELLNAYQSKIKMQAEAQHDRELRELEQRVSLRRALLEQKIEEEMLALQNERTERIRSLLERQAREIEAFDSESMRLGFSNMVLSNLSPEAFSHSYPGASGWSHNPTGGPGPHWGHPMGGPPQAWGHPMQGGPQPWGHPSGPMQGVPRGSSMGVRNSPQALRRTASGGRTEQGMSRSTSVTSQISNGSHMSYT
Procedure, shortened: (§1)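 Each complex tested in duplicate at 10 μM; cell-free radiometric assay using ^33P ATP on purified enzymes. Hits mapped by HGNC symbol onto the kinome tree.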

[2] = target: T2, 140 purified human kinases (Homo sapiens, UniProt O15530)
T2 sequence (O15530 1-556): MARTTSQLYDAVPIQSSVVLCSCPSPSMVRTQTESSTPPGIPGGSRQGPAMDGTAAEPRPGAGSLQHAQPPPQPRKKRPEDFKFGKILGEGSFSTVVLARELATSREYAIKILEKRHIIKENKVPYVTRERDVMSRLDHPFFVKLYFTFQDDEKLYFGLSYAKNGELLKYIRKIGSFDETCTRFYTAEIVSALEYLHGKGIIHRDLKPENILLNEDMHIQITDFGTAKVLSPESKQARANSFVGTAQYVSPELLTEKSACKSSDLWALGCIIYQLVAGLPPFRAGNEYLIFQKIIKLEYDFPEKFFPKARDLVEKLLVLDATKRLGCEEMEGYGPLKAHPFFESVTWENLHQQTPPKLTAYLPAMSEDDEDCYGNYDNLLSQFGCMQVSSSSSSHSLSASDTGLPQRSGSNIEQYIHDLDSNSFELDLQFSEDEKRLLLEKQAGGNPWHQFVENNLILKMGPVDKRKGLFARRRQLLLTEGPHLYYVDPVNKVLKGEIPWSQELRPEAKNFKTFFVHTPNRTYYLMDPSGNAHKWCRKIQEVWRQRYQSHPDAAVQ
Procedure, shortened: as §1

[3] = target: T3, 140 purified human kinases (Homo sapiens, UniProt P33981); conditions: TTK
T3 sequence (P33981 1-857): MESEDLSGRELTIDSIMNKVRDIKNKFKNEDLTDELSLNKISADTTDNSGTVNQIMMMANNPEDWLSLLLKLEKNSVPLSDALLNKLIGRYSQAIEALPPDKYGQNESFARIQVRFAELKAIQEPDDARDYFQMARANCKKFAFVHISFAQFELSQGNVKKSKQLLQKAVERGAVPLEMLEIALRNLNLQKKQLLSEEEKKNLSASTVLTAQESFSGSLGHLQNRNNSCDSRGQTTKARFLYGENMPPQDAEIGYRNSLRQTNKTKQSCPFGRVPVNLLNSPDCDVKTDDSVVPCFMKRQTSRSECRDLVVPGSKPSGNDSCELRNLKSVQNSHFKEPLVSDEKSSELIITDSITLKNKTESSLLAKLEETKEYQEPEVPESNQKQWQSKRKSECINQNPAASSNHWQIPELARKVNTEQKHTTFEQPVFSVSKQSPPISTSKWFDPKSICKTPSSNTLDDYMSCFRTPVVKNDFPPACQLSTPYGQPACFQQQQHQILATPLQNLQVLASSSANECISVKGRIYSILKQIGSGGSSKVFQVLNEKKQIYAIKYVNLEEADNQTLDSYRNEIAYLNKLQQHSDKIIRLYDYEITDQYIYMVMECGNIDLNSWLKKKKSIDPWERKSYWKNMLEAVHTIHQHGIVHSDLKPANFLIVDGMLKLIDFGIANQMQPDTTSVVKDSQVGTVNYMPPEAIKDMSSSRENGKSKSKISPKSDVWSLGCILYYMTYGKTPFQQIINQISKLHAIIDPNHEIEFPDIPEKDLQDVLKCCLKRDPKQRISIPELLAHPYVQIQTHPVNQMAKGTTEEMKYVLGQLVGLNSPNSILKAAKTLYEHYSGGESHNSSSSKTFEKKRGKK
Procedure, shortened: as §1

[4] = system: 140 purified human kinases; conditions: PHK
Procedure, shortened: as §1

[5] = target: 140 purified human kinases (Homo sapiens, UniProt Q15746); conditions: SmMLCK
Procedure, shortened: as §1

140 purified human kinases (Homo sapiens, UniProt Q15746), sequence (Q15746 whole entry): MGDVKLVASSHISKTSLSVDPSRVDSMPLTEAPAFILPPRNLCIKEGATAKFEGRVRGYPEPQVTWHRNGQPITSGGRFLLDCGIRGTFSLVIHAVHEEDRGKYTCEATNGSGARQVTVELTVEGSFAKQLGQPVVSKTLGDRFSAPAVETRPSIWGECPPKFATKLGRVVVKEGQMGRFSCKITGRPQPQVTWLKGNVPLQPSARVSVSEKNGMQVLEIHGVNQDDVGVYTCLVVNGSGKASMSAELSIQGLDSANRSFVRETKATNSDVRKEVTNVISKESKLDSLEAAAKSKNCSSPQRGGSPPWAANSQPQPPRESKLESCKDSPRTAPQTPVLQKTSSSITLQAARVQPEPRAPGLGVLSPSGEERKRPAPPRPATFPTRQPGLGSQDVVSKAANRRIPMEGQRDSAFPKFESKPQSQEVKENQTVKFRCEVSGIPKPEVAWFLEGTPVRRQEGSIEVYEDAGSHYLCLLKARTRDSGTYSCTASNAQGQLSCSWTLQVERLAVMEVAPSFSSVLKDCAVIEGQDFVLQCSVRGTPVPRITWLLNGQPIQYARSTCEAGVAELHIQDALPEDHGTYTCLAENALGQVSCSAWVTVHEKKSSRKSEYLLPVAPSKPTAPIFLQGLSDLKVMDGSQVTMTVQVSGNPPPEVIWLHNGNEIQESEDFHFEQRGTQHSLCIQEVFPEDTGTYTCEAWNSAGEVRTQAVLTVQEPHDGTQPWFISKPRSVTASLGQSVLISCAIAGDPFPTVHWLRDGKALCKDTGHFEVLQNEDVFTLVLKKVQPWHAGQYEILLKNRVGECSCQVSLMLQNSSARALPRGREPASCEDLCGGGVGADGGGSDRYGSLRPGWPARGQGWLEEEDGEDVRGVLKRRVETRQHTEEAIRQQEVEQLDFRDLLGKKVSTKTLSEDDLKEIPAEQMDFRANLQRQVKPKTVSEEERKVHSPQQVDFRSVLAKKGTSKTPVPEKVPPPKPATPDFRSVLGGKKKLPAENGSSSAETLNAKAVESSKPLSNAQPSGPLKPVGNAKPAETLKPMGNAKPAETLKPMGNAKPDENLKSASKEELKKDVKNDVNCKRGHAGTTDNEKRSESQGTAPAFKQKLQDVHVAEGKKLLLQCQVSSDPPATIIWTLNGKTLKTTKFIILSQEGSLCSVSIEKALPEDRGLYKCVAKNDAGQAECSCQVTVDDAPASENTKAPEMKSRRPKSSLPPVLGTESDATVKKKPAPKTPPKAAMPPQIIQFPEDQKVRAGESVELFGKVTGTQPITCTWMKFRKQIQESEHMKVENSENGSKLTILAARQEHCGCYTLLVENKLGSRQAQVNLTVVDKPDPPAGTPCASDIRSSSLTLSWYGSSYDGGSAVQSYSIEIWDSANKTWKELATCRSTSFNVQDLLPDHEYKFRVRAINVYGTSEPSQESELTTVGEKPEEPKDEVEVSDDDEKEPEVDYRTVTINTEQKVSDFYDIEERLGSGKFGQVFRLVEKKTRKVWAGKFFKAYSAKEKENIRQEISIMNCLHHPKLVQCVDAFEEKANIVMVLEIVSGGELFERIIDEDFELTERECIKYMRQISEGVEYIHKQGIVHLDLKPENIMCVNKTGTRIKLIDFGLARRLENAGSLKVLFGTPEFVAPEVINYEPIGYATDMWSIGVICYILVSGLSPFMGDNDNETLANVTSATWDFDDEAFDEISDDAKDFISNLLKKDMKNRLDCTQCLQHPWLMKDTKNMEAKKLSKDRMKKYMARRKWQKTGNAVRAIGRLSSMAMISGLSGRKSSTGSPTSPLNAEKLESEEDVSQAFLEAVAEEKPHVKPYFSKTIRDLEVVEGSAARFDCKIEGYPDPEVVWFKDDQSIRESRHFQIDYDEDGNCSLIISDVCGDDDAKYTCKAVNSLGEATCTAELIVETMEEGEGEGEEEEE

SMILES: [Cu+2].[Cu+2].[Cu+2].c1ccc(-c2csc(NCCN(CCNc3nc(-c4ccccn4)cs3)CCNc3nc(-c4ccccn4)cs3)n2)nc1.c1ccc(-c2csc(NCCN(CCNc3nc(-c4ccccn4)cs3)CCNc3nc(-c4ccccn4)cs3)n2)nc1 [[L2Cu3]6+]
- % Activation, Mean value ([1]; TAO1): 10%
- % Inhibition Run 1 ([1]; TAO1): -6.6%
- % Inhibition Run 2 ([1]; TAO1): -13.8%
- % Inhibition, Mean ([1]; TAO1): -10%
- mean % activity ([1]; TAO1): 110%
- % activity ([1]; TAO1, Run 1): 106.6%
- % activity ([1]; TAO1, Run 2): 113.8%
- % Activity Run 1 ([1]; TAO1, 10 µM): 106.60%
- % Activity Run 2 ([1]; TAO1, 10 µM): 113.80%
- % Activation, Mean value ([2]; PDK1): 6.45%
- % Inhibition Run 1 ([2]; PDK1): 12.4%
- % Inhibition Run 2 ([2]; PDK1): -25.3%
- % Inhibition, Mean ([2]; PDK1): -6.45%
- mean % activity ([2]; PDK1): 106%
- % activity ([2]; PDK1, Run 1): 87.6%
- % activity ([2]; PDK1, Run 2): 125.3%
- % Inhibition Run 1 [3]: 41.9%
- % Inhibition Run 2 [3]: 45.5%
- % Inhibition, Mean [3]: 44%
- mean % activity [3]: 56%
- % activity ([3]; Run 1): 58.1%
- % activity ([3]; Run 2): 54.5%
- % activity ([4]; Run 1): 40.1%
- % activity ([4]; Run 2): 50.7%
- % Inhibition Run 1 [5]: 59.8%
- % Inhibition Run 2 [5]: 52.2%
- % Inhibition, Mean [5]: 56%
- mean % activity [5]: 44%
- % activity ([5]; Run 1): 40.2%
- % activity ([5]; Run 2): 47.8%

SMILES: CC(=O)[O-].CC(=O)[O-].CC(=O)[O-].CC(=O)[O-].CC(=O)[O-].CC(=O)[O-].[Zn+2].[Zn+2].[Zn+2].c1ccc(-c2csc(NCCN(CCNc3nc(-c4ccccn4)cs3)CCNc3nc(-c4ccccn4)cs3)n2)nc1.c1ccc(-c2csc(NCCN(CCNc3nc(-c4ccccn4)cs3)CCNc3nc(-c4ccccn4)cs3)n2)nc1 [[L2Zn3]6+]
- % Activation, Mean value ([1]; TAO1): 8%
- % Inhibition, Mean ([1]; TAO1): -8%
- mean % activity ([1]; TAO1): 108%
- % activity ([1]; TAO1, duplicate runs): 93% and 122%
- % Activation, Mean value ([2]; PDK1): 46%
- % Inhibition, Mean ([2]; PDK1): -46%
- mean % activity ([2]; PDK1): 146%
- % Activity Run 1 ([2]; PDK1, 10 µM): 131.0%
- % Activity Run 2 ([2]; PDK1, 10 µM): 160.0%
- % activity ([2]; PDK1, duplicate runs): 131% and 160%
- % Inhibition, Mean [3]: 33%
- % Inhibition, Run 1 / Run 2 [3]: 37% and 28%
- mean % activity [3]: 67%
- % activity ([3]; duplicate runs): 63% and 72%
- % Inhibition, Run 1 / Run 2 [4]: 68% and 61%
- % Inhibition, Mean [5]: 3.75%
- mean % activity [5]: 96%
- % activity ([5]; duplicate runs): 76% and 117%
